Measurements from US20220175798A1, “COMPOSITIONS COMPRISING OXYGENATED CHOLESTEROL SULFATE AND AT LEAST ONE OF POLYALKYLENE GLYCOL, CARBOXYMETHYL CELLULOSE AND POLYOXYLGLYCERIDE” (Durect Corporation, priority 2016, published 2022).
“And” between values parts separate entries of the source, which are not always exact repeats. Identical values can stand only once.

Test: Particle size analysis by Malvern Mastersizer 2000 (laser diffraction)
Format: physicochemical
Method: Two lots of 25HC3S sodium salt (Lot #A and Lot #B) were first passed through either 20 mesh or 35 mesh stainless steel sieves for particle size analysis. The particle sizes were further reduced by jet milling and analyzed again. All particle size analyses were determined using a Malvern Mastersizer 2000.
Fluid Energy Model 00 Jet-O-Mizer was used for all jet-milling. Malvern Mastersizer 2000 equipped with a Hydro 2000S dispersion cell was used for particle size analysis.
Approximately 60 mg of API was weighed into a 4 mL screw cap vial and 1 mL water, USP was added to the vial. […] Duplicate samples from each single sample preparation were analyzed.
Particle refractive index was assumed to be 1.53 (not measured by refractometer) and particle absorption index was 0.01. Dispersant (water, USP, presaturated with 25HC3 S) refractive index was 1.33. […] Throughout the measurement, the pump rate was 3000 rpm without sonication. The measurement integration time was 20,000 ms; the numbers of measurements for each sample were 5 with a 20 seconds delay in between two measurements. Analysis model: General purpose

[1] = 20 mesh sieve then Jet milling 1st pass (1st milling sample, feed rate not controlled), sodium salt
[2] = 20 mesh sieve then Jet milling 2nd pass, sodium salt
[3] = 20 mesh sieve then Jet milling 3rd pass, sodium salt
[4] = Press through 20 mesh sieve with a stainless steel spatula, sodium salt
[5] = Press through 35 mesh sieve with a stainless steel spatula
[6] = 20 mesh sieve then Jet milling 1st pass (2nd milling sample, feed rate 1 g/min)

With `C[C@H](CCCC(C)(C)O)[C@H]1CC[C@H]2[C@@H]3CC=C4C[C@@H](OS(=O)(=O)[O-])CC[C@]4(C)[C@H]3CC[C@]12C.[Na+]` [Lot# A, 25HC3S sodium salt] the “d (0.9)” value (20 mesh sieve then Jet milling 1st pass (1st milling sample, feed rate not controlled), listed as Lot #A, sodium salt) was 5.180 μm, the “d (0.1)” value [1] was 0.705 μm and the “d (0.5)” value [1] was 2.091 μm. For the same compound, the “d (0.9)” value [1] was 5.180 μm, the “d (0.1)” value [2] was 0.384 μm and 0.496 μm and the “d (0.5)” value [2] was 1.214 μm and 1.320 μm. The “d (0.9)” value [2] was 4.026 μm and 4.035 μm, the “d (0.9)” value (20 mesh sieve then Jet milling 3rd pass, listed as Lot #A, sodium salt) was 2.755 μm and the “d (0.1)” value [3] was 0.137 μm and 0.120 μm. The “d (0.5)” value [3] was 0.664 μm and 0.580 μm, the “d (0.9)” value [3] was 2.896 μm and 2.755 μm and the “d (0.1)” value [4] was 2.268 μm and 2.474 μm. The “d (0.5)” value [4] was 6.324 μm and 6.905 μm, the “d (0.9)” value [4] was 18.712 μm and 20.290 μm and the “d (0.1)” value [5] was 2.536 μm. For the same compound, the “d (0.5)” value [5] was 7.147 μm and the “d (0.9)” value [5] was 22.195 μm.
With `C[C@H](CCCC(C)(C)O)[C@H]1CC[C@H]2[C@@H]3CC=C4C[C@@H](OS(=O)(=O)[O-])CC[C@]4(C)[C@H]3CC[C@]12C.[Na+]` [Lot# B, 25HC3S sodium salt] the “d (0.9)” value (20 mesh sieve then Jet milling 1st pass (1st milling sample, feed rate not controlled), listed as Lot #B, sodium salt) was 22.07 μm and 16.17 μm, the “d (0.1)” value [1] was 2.148 μm and 1.822 μm and the “d (0.5)” value [1] was 6.858 μm and 5.126 μm. The “d (0.9)” value [1] was 29.028 μm and 22.070 μm, the “d (0.1)” value [6] was 1.253 μm and the “d (0.5)” value [6] was 3.172 μm. The “d (0.9)” value (20 mesh sieve then Jet milling 1st pass (2nd milling sample, feed rate 1 g/min), listed as Lot #B, sodium salt) was 9.09 μm, the “d (0.9)” value (20 mesh sieve then Jet milling 1st pass (2nd milling sample, feed rate 1 g/min), sodium salt) was 9.090 μm and the “d (0.1)” value [2] was 1.431 μm and 1.109 μm. For the same compound, the “d (0.5)” value [2] was 4.192 μm and 3.920 μm, the “d (0.9)” value [2] was 15.878 μm and 13.196^4 μm and the “d (0.1)” value [3] was 0.976 μm and 0.651 μm. For the same compound, the “d (0.5)” value [3] was 4.251 μm and 2.329 μm, the “d (0.9)” value [3] was 16.17 μm and the “d (0.1)” value [4] was 4.132 μm and 4.947 μm. The “d (0.5)” value [4] was 15.439 μm and 21.437 μm and the “d (0.9)” value [4] was 43.740 μm and 68.250 μm.
